Values quoted from earlier work in US12121499B2, “Pharmaceutical composition comprising the phytocannabinoids cannabidivarin (CBDV) and cannabidiol (CBD)” (priority 2011, dated 2024).
Like-named read-outs stand apart in the source and are kept apart here.

Experiments:
CB1 receptor [1] = target: T1, CB1 receptor (Homo sapiens, UniProt P21554); details: WO 2006/054057; Pertwee (2000)
CB1 receptor [2] = target: T1, CB1 receptor; details: WO 2007/138322
grand mal seizures = details: 200-300 mg cannabidiol plus regular medication
seizure frequency = details: 900-1200 mg of cannabidiol a day for 10 months; single patient
[3] = rats; WO 2007/138322
CB2 receptor = CB2 receptor (Homo sapiens, UniProt P34972); details: WO 2007/138322
[4] = system: seizure frequency in epileptic patients; details: 200-300 mg of cannabidiol per day plus standard antiepileptic drugs; 12 epileptic patients
seizures = details: 5 institutionalized children not responding to phenobarbital and phenoytin
[5] = rats, doses greater than 200 mg/kg

T1 sequence (P21554 whole entry): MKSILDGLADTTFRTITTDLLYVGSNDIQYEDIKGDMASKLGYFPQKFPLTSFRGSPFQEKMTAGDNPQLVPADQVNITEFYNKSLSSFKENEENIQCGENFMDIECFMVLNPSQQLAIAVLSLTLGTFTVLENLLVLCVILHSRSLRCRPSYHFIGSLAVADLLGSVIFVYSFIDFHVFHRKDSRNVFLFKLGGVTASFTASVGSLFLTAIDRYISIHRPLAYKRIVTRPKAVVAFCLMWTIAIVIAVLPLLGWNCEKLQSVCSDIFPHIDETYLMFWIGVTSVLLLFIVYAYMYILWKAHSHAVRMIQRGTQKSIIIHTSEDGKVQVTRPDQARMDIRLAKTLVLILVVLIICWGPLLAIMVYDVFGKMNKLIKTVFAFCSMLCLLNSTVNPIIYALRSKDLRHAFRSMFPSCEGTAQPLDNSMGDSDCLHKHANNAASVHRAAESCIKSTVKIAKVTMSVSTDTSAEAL
Sequence of CB2 receptor (P34972 whole entry): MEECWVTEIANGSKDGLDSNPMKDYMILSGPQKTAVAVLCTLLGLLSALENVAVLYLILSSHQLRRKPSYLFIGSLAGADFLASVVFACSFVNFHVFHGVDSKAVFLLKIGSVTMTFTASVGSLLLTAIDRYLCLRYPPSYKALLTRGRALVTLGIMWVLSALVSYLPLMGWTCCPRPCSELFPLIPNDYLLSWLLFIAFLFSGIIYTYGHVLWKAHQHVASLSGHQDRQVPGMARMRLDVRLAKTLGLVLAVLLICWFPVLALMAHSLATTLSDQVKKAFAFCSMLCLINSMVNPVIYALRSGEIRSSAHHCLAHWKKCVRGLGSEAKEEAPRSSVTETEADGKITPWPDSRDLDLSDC

CCCc1cc(O)c2c(c1)OC(C)(C)[C@@H]1CCC(C)=C[C@@H]21 [THCV, Tetrahydrocannabivarin]
action at the CB1 receptor (CB1 receptor [1]): CB1 receptor antagonist

CCCC(CCC)C(=O)O [valproate]
motor and other side effects [5]: notable motor and other side effects (including sedation)

C=C(C)[C@@H]1CCC(C)=C[C@H]1c1c(O)cc(CCCCC)cc1O [CBD, Cannabidiol]
action at the CB1 receptor (CB1 receptor [2]): inverse agonist | patients who remained unchanged (grand mal seizures): 1 | patients who showed minor improvement (grand mal seizures): 2 | patients who showed partial improvement (grand mal seizures): 2 | unwanted effect (grand mal seizures): mild sedation | patients who showed complete improvement (grand mal seizures; 16 grand mal patients in study): 3 | seizure frequency (seizure frequency): markedly reduced | bodyweight [3]: reduced bodyweight | action at the CB2 receptor (CB2 receptor): inverse agonist | seizure frequency [4]: no significant improvement

CCC1(c2ccccc2)C(=O)NC(=O)NC1=O [phenobarbital]
motor and other side effects (rat models of epilepsy, doses greater than 250 mg/kg): notable motor and other side effects (including sedation)

CCC1(C)CC(=O)NC1=O (stereo not drawn) [ethosuximide]
motor and other side effects [5]: notable motor and other side effects (including sedation)

CCCCCc1cc(O)c2c(c1)OC(C)(C)[C@@H]1CCC(C)=C[C@@H]21 [THC, Tetrahydrocannabinol]
seizure outcome (seizures): One became entirely free of seizures, one became almost completely free of seizures, and the other three did no worse than before
